Laboratory results: patent US8044079B2, “Substituted oxindole derivatives, medicaments containing said derivatives and use thereof” (Abbott GmbH & Co. KG, priority 2005, dated 2011)

Each compound was assayed against T1, human vasopressin V1b receptor (Homo sapiens, UniProt P47901) (assay: Vasopressin V1b receptor binding test). Conditions: membranes of CHO-K1 cells with human V1b receptor, displacement of 1.5 nM 3H-AVP; for compounds with more than one stereogenic center the diastereomer with greater affinity.
T1 construct: expressed in transfected cells; host or cells: CHO-K1 (cell line hV1b_3H2_CHO), membrane preparation
T1 sequence (P47901 1-424): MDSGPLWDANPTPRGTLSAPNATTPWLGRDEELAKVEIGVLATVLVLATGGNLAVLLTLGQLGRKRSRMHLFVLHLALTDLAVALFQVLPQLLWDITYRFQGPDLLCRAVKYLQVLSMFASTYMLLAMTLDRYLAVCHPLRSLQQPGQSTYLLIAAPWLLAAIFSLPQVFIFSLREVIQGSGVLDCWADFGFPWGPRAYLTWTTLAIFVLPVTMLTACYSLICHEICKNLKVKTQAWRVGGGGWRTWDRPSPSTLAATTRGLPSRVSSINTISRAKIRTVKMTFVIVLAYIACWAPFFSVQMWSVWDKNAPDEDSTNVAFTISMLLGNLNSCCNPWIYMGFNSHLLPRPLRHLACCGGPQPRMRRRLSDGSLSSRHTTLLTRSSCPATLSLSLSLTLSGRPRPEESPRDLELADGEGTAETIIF
How it was run: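 Radioligand displacement on membranes carrying human V1b receptor in 50 mM tris, 10 mM MgCl2, 0.1% BSA, pH 7.4, 2% DMSO final; 60 min at room temperature, nonspecific binding with 1 μM AVP. Free ligand removed by filtration, bound counted by liquid scintillation, Ki from nonlinear regression of triplicates.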

**Q.** `COc1ccc(S(=O)(=O)N2C(=O)C(c3cc(CN4CCN(C(C)C)CC4)ccc3OC)(N3CCC[C@H]3c3ncco3)c3cc(Cl)c(Cl)cc32)cc1` (stereo partly drawn) [Example 104, 5,6-Dichloro-3-[5-(4-isopropylpiperazin-1-ylmethyl)-2-methoxyphenyl]-1-(4-methoxybenzenesulfonyl)-3-((S)-2-oxazol-2-yl-pyrrolidin-1-yl)-1,3-dihydroindol-2-one] was tested. Which Ki did it give?
**A.** 10 to 100 nM

**Q.** With `CNCc1ccc(OC)c(C2(N3C[C@H](O)C[C@H]3c3ncco3)C(=O)N(S(=O)(=O)c3ccc(OC)cc3)c3ccc(Cl)cc32)c1` (stereo partly drawn) [Example 105, 5-Chloro-3-((2S,4R)-4-hydroxy-2-oxazol-2-yl-pyrrolidin-1-yl)-1-(4-methoxybenzenesulfonyl)-3-(2-methoxy-5-(methylaminomethyl)phenyl)-1,3-dihydroindol-2-one] as the compound, how does the Ki read?
**A.** < 10 nM

**Q.** With `COc1ccc(S(=O)(=O)N2C(=O)C(c3cc(CNC(C)(C)C)ccc3OC)(N3CCC[C@H]3c3ncco3)c3cc(Cl)c(Cl)cc32)cc1` (stereo partly drawn) [Example 106, 5,6-Dichloro-3-[5-(tert-butylaminomethyl)-2-methoxyphenyl]-1-(4-methoxybenzenesulfonyl)-3-((S)-2-oxazol-2-yl-pyrrolidin-1-yl)-1,3-dihydroindol-2-one] as the compound, how does the Ki read?
**A.** 10 to 100 nM

**Q.** `COc1ccc(S(=O)(=O)N2C(=O)C(c3cc(CN4CCN(CCO)CC4)ccc3OC)(N3CCC[C@H]3c3ncco3)c3cc(Cl)c(Cl)cc32)cc1` (stereo partly drawn) [Example 107, 5,6-Dichloro-3-{5-[4-(2-hydroxyethyl)piperazin-1-ylmethyl]-2-methoxyphenyl}-1-(4-methoxybenzenesulfonyl)-3-((S)-2-oxazol-2-yl-pyrrolidin-1-yl)-1,3-dihydroindol-2-one] was tested. Which Ki did it give?
**A.** 10 to 100 nM

**Q.** Which Ki does the source give for `COc1ccc(S(=O)(=O)N2C(=O)C(NCc3ncco3)(c3cc(CN(C)C)ccc3OC)c3cc(Cl)ccc32)cc1` (centres unmarked) [Example 108, 5-Chloro-3-(5-dimethylaminomethyl-2-methoxyphenyl)-1-(4-methoxybenzenesulfonyl)-3-[(oxazol-2-ylmethyl)amino]-1,3-dihydroindol-2-one] here?
**A.** 10 to 100 nM

**Q.** `COc1ccc(S(=O)(=O)N2C(=O)C(NCc3ncco3)(c3cc(CN4CCCC4)ccc3OC)c3cc(Cl)ccc32)cc1` (centres unmarked) [Example 109, 5-Chloro-1-(4-methoxybenzenesulfonyl)-3-(2-methoxy-5-pyrrolidin-1-ylmethylphenyl)-3-[(oxazol-2-ylmethyl)amino]-1,3-dihydroindol-2-one] was tested. Which Ki did it give?
**A.** 10 to 100 nM

**Q.** With `COc1ccc(S(=O)(=O)N2C(=O)C(NCc3ncco3)(c3cc(CN4CCN(C)CC4)ccc3OC)c3cc(Cl)ccc32)cc1` (centres unmarked) [Example 110, 5-Chloro-1-(4-methoxybenzenesulfonyl)-3-[2-methoxy-5-(4-methylpiperazin-1-ylmethyl)phenyl]-3-[(oxazol-2-ylmethyl)amino]-1,3-dihydroindol-2-one] as the compound, how does the Ki read?
**A.** 10 to 100 nM

**Q.** Which Ki does the source give for `COc1ccc(S(=O)(=O)N2C(=O)C(NCc3ncco3)(c3cc(CNCCO)ccc3OC)c3cc(Cl)ccc32)cc1` (centres unmarked) [Example 111, 5-Chloro-3-{5-[(2-hydroxyethylamino)methyl]-2-methoxyphenyl}-1-(4-methoxybenzenesulfonyl)-3-[(oxazol-2-ylmethyl)amino]-1,3-dihydroindol-2-one] here?
**A.** 10 to 100 nM

**Q.** For `COc1ccc(S(=O)(=O)N2C(=O)C(c3cc(CN4CCNCC4)ccc3OC)(N3C[C@H](O)C[C@H]3c3ncco3)c3cc(Cl)ccc32)cc1` (stereo partly drawn) [Example 113, 5-Chloro-3-((2S,4R)-4-hydroxy-2-oxazol-2-yl-pyrrolidin-1-yl)-1-(4-methoxybenzenesulfonyl)-3-(2-methoxy-5-(piperazin-1-ylmethyl)phenyl)-1,3-dihydroindol-2-one], which Ki is on record?
**A.** < 10 nM

**Q.** How did the Ki turn out when `COc1ccc(S(=O)(=O)N2C(=O)C(c3cc(CN4CCCC4)ccc3OC)(N3C[C@H](O)C[C@H]3c3ncco3)c3cc(Cl)ccc32)cc1` (stereo partly drawn) [Example 114, 5-Chloro-3-((2S,4R)-4-hydroxy-2-oxazol-2-yl-pyrrolidin-1-yl)-1-(4-methoxybenzenesulfonyl)-3-(2-methoxy-5-(pyrrolidin-1-ylmethyl)phenyl)-1,3-dihydroindol-2-one] was run?
**A.** < 10 nM

**Q.** For `CCCNCc1ccc(OC)c(C2(N3C[C@H](O)C[C@H]3c3ncco3)C(=O)N(S(=O)(=O)c3ccc(OC)cc3)c3ccc(Cl)cc32)c1` (stereo partly drawn) [Example 115, 5-Chloro-3-((2S,4R)-4-hydroxy-2-oxazol-2-yl-pyrrolidin-1-yl)-1-(4-methoxybenzenesulfonyl)-3-(2-methoxy-5-(propylaminomethyl)phenyl)-1,3-dihydroindol-2-one], which Ki is on record?
**A.** < 10 nM

**Q.** With `CCCNCc1ccc(OC)c(C2(N3CCC[C@H]3c3ncco3)C(=O)N(S(=O)(=O)c3ccc(OC)cc3)c3ccc(Cl)cc32)c1` (stereo partly drawn) [Example 116, 5-Chloro-1-(4-methoxybenzenesulfonyl)-3-(2-methoxy-5-(propylaminomethyl)phenyl)-3-((S)-2-oxazol-2-yl-pyrrolidin-1-yl)-1,3-dihydroindol-2-one] as the compound, how does the Ki read?
**A.** < 10 nM

**Q.** Which Ki does the source give for `COc1ccc(S(=O)(=O)N2C(=O)C(c3cc(CN(C)C)ccc3OC)(N3CCCC3c3nccs3)c3cc(Cl)ccc32)cc1` (centres unmarked) [Example 117, 5-Chloro-3-(5-dimethylaminomethyl-2-methoxyphenyl)-1-(4-methoxybenzenesulfonyl)-3-(2-thiazol-2-yl-pyrrolidin-1-yl)-1,3-dihydroindol-2-one] here?
**A.** 10 to 100 nM

**Q.** With `COc1ccc(S(=O)(=O)N2C(=O)C(c3cc(CN4CCCC4)ccc3OC)(N3CCCC3c3nccs3)c3cc(Cl)ccc32)cc1` (centres unmarked) [Example 118, 5-Chloro-1-(4-methoxybenzenesulfonyl)-3-(2-methoxy-5-(pyrrolidin-1-ylmethyl)phenyl)-3-(2-thiazol-2-yl-pyrrolidin-1-yl)-1,3-dihydroindol-2-one] as the compound, how does the Ki read?
**A.** 10 to 100 nM

**Q.** How did the Ki turn out when `COc1ccc(S(=O)(=O)N2C(=O)C(c3cc(CN4CCN(C)CC4)ccc3OC)(N3CCCC3c3nccs3)c3cc(Cl)ccc32)cc1` (centres unmarked) [Example 119, 5-Chloro-1-(4-methoxybenzenesulfonyl)-3-[2-methoxy-5-(4-methylpiperazin-1-ylmethyl)phenyl]-3-(2-thiazol-2-yl-pyrrolidin-1-yl)-1,3-dihydroindol-2-one] was run?
**A.** 10 to 100 nM

**Q.** How did the Ki turn out when `CNCc1ccc(OC)c(C2(N3CCCC3c3ccccn3)C(=O)N(S(=O)(=O)c3ccc(OC)cc3)c3ccc(Cl)cc32)c1` (centres unmarked) [Example 120, 5-Chloro-1-(4-methoxybenzenesulfonyl)-3-(2-methoxy-5-methylaminomethylphenyl)-3-(2-pyridin-2-yl-pyrrolidin-1-yl)-1,3-dihydroindol-2-one] was run?
**A.** 100 to 1000 nM

**Q.** For `COc1ccc(S(=O)(=O)N2C(=O)C(c3cc(CN4CCNCC4)ccc3OC)(N3CCCC3c3nccs3)c3cc(Cl)ccc32)cc1` (centres unmarked) [Example 121, 5-Chloro-1-(4-methoxybenzenesulfonyl)-3-(2-methoxy-5-(piperazin-1-ylmethyl)phenyl)-3-(2-thiazol-2-yl-pyrrolidin-1-yl)-1,3-dihydroindol-2-one], which Ki is on record?
**A.** 10 to 100 nM

**Q.** Which Ki does the source give for `COc1ccc(S(=O)(=O)N2C(=O)C(c3cc(CN(C)C)ccc3OC)(N3CCCC3c3ccccn3)c3cc(Cl)ccc32)cc1` (centres unmarked) [Example 122, 5-Chloro-3-(5-dimethylaminomethyl-2-methoxyphenyl)-1-(4-methoxybenzenesulfonyl)-3-(2-pyridin-2-yl-pyrrolidin-1-yl)-1,3-dihydroindol-2-one] here?
**A.** 100 to 1000 nM

**Q.** Which Ki does the source give for `CCCNCc1ccc(OC)c(C2(N3CCCC3c3ccccn3)C(=O)N(S(=O)(=O)c3ccc(OC)cc3)c3ccc(Cl)cc32)c1` (centres unmarked) [Example 123, 5-Chloro-1-(4-methoxybenzenesulfonyl)-3-(2-methoxy-5-propylaminomethylphenyl)-3-(2-pyridin-2-yl-pyrrolidin-1-yl)-1,3-dihydroindol-2-one] here?
**A.** 100 to 1000 nM

**Q.** With `COc1ccc(S(=O)(=O)N2C(=O)C(c3cc(CN4CCN(C)CC4)ccc3OC)(N3CCCC3c3ccccn3)c3cc(Cl)ccc32)cc1` (centres unmarked) [Example 124, 5-Chloro-1-(4-methoxybenzenesulfonyl)-3-[2-methoxy-5-(4-methylpiperazin-1-ylmethyl)phenyl]-3-(2-pyridin-2-yl-pyrrolidin-1-yl)-1,3-dihydroindol-2-one] as the compound, how does the Ki read?
**A.** 10 to 100 nM

**Q.** Which Ki does the source give for `COc1ccc(S(=O)(=O)N2C(=O)C(c3cc(CN4CCNC(=O)C4)ccc3OC)(N3CCC[C@H]3c3ncco3)c3cc(Cl)ccc32)cc1` (stereo partly drawn) [Example 125, 5-Chloro-1-(4-methoxybenzenesulfonyl)-3-[2-methoxy-5-(3-oxopiperazin-1-ylmethyl)phenyl]-3-((S)-2-oxazol-2-yl-pyrrolidin-1-yl)-1,3-dihydroindol-2-one] here?
**A.** 10 to 100 nM

**Q.** `COc1ccc(S(=O)(=O)N2C(=O)C(c3cc(CN4CCNCC4)ccc3OC)(N3CCCC3c3ccccn3)c3cc(Cl)ccc32)cc1` (centres unmarked) [Example 126, 5-Chloro-1-(4-methoxybenzenesulfonyl)-3-(2-methoxy-5-piperazin-1-ylmethylphenyl)-3-(2-pyridin-2-yl-pyrrolidin-1-yl)-1,3-dihydroindol-2-one] was tested. Which Ki did it give?
**A.** 100 to 1000 nM

**Q.** Which Ki does the source give for `COc1ccc(S(=O)(=O)N2C(=O)C(c3ccc(CN4CCN(CCO)CC4)cc3OC)(N3CCC[C@H]3c3ncco3)c3cc(Cl)ccc32)cc1` (stereo partly drawn) [Example 127, 5-Chloro-3-{4-[4-(2-hydroxyethyl)piperazin-1-ylmethyl]-2-methoxyphenyl}-1-(4-methoxybenzenesulfonyl)-3-((S)-2-oxazol-2-yl-pyrrolidin-1-yl)-1,3-dihydroindol-2-one] here?
**A.** < 10 nM
